In patent publication US11299493B2, “Heterocyclic compounds and uses thereof” (NUVATION BIO INC., priority 2017, dated 2022):

What was measured:
A427 cells [1] = assay: Cell proliferation assay (Cell Titer-Glo) in A427 cells; type: cell-based; details: Homo sapiens, A-427, typically 72 h
Method: The effects of test compounds were studied in five cell lines with various histotypes. The cancer cells (Table 4) were harvested during the logarithmic growth period and counted. Adjust cell concentrations to the appropriated number with respective medium, and add 90 μL cell suspensions to 96-well plates. After cells were seeded, the plates were shaken gently to distribute cells evenly and incubated at 37° C., 5% CO2 on day 1.
Cell viability data were plotted using GraphPad Prism (version 5, GraphPad Software, Inc., San Diego, Calif.). In addition, a nonlinear regression model with a sigmoidal dose response and variable slope within GraphPad Prism was used to calculate the IC50 value of individual test compounds.

WEE1 kinase enzyme = WEE1 kinase enzyme (Homo sapiens (Human), UniProt P30291); assay: WEE1 IC50 determination, LanthaScreen Terbium Labeled TR-FRET kinase assay; type: biochemical; details: WEE1 enzyme 1 nM, ATP 10 μM, 1 h
WEE1 kinase enzyme, sequence (P30291 whole entry): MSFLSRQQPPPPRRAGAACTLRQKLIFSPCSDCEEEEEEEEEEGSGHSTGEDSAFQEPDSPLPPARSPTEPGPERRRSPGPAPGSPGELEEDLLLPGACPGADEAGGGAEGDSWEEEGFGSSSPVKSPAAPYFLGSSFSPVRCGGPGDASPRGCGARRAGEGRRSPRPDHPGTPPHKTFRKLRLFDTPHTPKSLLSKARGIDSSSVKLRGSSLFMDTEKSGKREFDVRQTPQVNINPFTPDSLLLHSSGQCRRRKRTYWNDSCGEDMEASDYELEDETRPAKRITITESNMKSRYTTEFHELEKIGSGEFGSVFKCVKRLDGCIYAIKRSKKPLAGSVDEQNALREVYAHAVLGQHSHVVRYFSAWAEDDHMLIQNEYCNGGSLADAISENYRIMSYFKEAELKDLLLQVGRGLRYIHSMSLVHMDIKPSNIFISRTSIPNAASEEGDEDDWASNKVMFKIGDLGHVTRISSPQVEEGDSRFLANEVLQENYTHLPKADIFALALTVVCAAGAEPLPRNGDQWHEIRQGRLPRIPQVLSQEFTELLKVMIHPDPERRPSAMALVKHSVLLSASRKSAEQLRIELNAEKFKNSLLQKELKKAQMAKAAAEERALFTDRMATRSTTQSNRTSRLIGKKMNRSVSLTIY
Method: IC50 values of compounds against WEE1 kinase enzyme were determined by LanthaScreen™ Terbium Labeled TR-FRET assay. […] After 1 h, […] stop solution containing Terbium labeled antibody (4 nM) (#PV3529, Invitrogen, Life Technologies Grand Island, N.Y.) and EDTA (#E5134, Sigma, St-Louis, Mo.) (20 mM) in TR-FRET dilution buffer (#PV3574, Invitrogen, Life Technologies Grand Island, N.Y.) was added. Readings were taken in a Synergy Neo Plate reader (BioTek, Winooski) at single excitation of 340 nm and Dual emission at 495 nm and 520 nm respectively.
The % activity of test samples was calculated as (Sample−Min)*100/(Max−Min). [Max: DMSO control, complete reaction with enzyme & DMSO and Min: No enzyme & DMSO].

A427 cells [2] = assay: Cytotoxicity assay (resazurin) in A427 cells; type: cell-based; details: Homo sapiens, A-427, 72 h, A427, 72 hr, read-out: Cell Viability IC50 A427
Method: (§1) Cells were allowed to grow at 37° C. for 24 hr in 5% CO2 environment (culture conditions) in a Nuaire incubator (humidified). Serially diluted test compounds (100 μL) within the desired testing concentration ranges were added to the culture plate were further incubated in culture conditions for 72 hr and 96 hr for A427 and A549 respectively. The experiment was terminated at the designated incubation time by replacing the medium with 100 μL of 1 mM of resazurin (R7017; Sigma) prepared in respective culture medium, and the plates were further incubated in culture conditions for 4-6 hr. Fluorescence was recorded using a multimodal plate reader (Biotek Synergy Neo) at an excitation wavelength of 535 nm and emission wavelength of 590 nm to obtain relative fluorescence units. Data analysis was done by subtracting the background fluorescence (only medium blank) value from each reading and then normalizing with the vehicle control (DMSO treated cells) to obtain percent survival/proliferation. Percent survival was then subtracted by 100 to get the percent inhibition of proliferation which was used to calculate IC50 values.

A549 cells = assay: Cytotoxicity assay (resazurin) in A549 cells; type: cell-based; details: Homo sapiens, A549, 96 hr, read-out: Cell Viability IC50 A549
Method: as §1

A427 cells [3] = assay: Activity of compounds in combination with cisplatin in A427 cells (resazurin); type: cell-based; details: Homo sapiens, A-427, 24 hr 2.5 μM cisplatin
Method: The activity of test compounds in combination with cisplatin in A427 cells was determined. Cells were seeded in a 96 well plate at 2000 cells/well. The next day, cells were treated with 2.5 μM cisplatin or vehicle (1×PBS) and incubated in culture conditions (37° C., 5% CO2) for 24 hr. Following the incubation, culture medium was replaced with medium containing test compound and cisplatin/vehicle, and cells were further incubated in culture conditions for another 72 hr. By this procedure, cisplatin was either continued or discontinued after an initial 24-hr incubation. Addition of test compound was in concentrations needed to obtain an 8-point dose response curve, with concentrations prepared by 3-fold dilution. The assay was terminated upon addition of resazurin, incubation for 4 hr in culture conditions and measurement of fluorescence at excitation and emission wavelengths of 535 and 590 nm, respectively.

Panc 10.05 cells = assay: Cytotoxicity assay (resazurin) in Panc 10.05 cells; type: cell-based; details: Homo sapiens, Panc1005; Panc 10.05, resazurin; read-out: Cell Viability IC50 Panc 10.05
Method: [The source words this procedure for another cell line and reports this cell line under the same test.] as §1, with “A549 (CCL-185; ATCC) and A427 (HTB-53; ATCC), both lung epithelial cell lines were seeded in their respective medium (DMEM/MEM, 10569044/41090101; Gibco) at a cell count of 1500 cells per 100 μL per well in a 96 well edge plate (167425; ThermoFisher). Cells” for “Cells”, “values. Potency of compounds in other cell lines (As-Pc-1, Panc 10.05, A172) was determined in an analogous manner.” for “values.”

As-Pc-1 cells = assay: Cytotoxicity assay (resazurin) in As-Pc-1 cells; type: cell-based; details: Homo sapiens, ASPC1; As-Pc-1, resazurin; read-out: Cell Viability IC50 As-Pc-1
Method: [The source words this procedure for another cell line and reports this cell line under the same test.] as §1, with “A549 (CCL-185; ATCC) and A427 (HTB-53; ATCC), both lung epithelial cell lines were seeded in their respective medium (DMEM/MEM, 10569044/41090101; Gibco) at a cell count of 1500 cells per 100 μL per well in a 96 well edge plate (167425; ThermoFisher). Cells” for “Cells”, “values. Potency of compounds in other cell lines (As-Pc-1, Panc 10.05, A172) was determined in an analogous manner.” for “values.”

A172 cells = assay: Cytotoxicity assay (resazurin) in A172 cells; type: cell-based; details: Homo sapiens, A 172, read-out: Cell Viability IC50 A172
Method: [The source words this procedure for another cell line and reports this cell line under the same test.] as §1, with “A549 (CCL-185; ATCC) and A427 (HTB-53; ATCC), both lung epithelial cell lines were seeded in their respective medium (DMEM/MEM, 10569044/41090101; Gibco) at a cell count of 1500 cells per 100 μL per well in a 96 well edge plate (167425; ThermoFisher). Cells” for “Cells”, “values. Potency of compounds in other cell lines (As-Pc-1, Panc 10.05, A172) was determined in an analogous manner.” for “values.”

[4] = then compound + cisplatin 72 hr, read-out: Cell viability IC50 in A427 cells with 2.5 μM cisplatin: 24 hr cisplatin then compound + cisplatin
[5] = then compound alone 72 hr, read-out: Cell viability IC50 in A427 cells with 2.5 μM cisplatin: 24 hr cisplatin then compound

SMILES | IC50 (WEE1 kinase enzyme) [nM] | IC50 (A427 cells [1]) [nM] | IC50 (A427 cells [2]) [nM] | IC50 (A549 cells) [nM] | IC50 (A427 cells [3]; [4]) [nM] | IC50 (A427 cells [3]; [5]) [nM] | IC50 (Panc 10.05 cells) [nM] | IC50 (As-Pc-1 cells) [nM] | IC50 (A172 cells) [nM]
C=CCn1c(=O)c2cnc(Nc3ccc4c(c3)CN(C(=O)CO)CC4)nc2n1-c1cccc(C(C)(C)O)n1 [Example 1.2] | 4 | 269 | 330 | 842 | – | – | – | – | –
C=CCn1c(=O)c2cnc(Nc3ccc4c(c3)CN(C(=O)C(C)(C)O)CC4(C)C)nc2n1-c1cccc(C(C)(C)O)n1 [Example 1.3] | < 2 | 483 | 620 | 1220 | – | – | – | – | –
C=CCn1c(=O)c2cnc(Nc3ccc4c(c3)CN(C(=O)CO)CC4(C)C)nc2n1-c1cccc(C(C)(C)O)n1 [Example 1.6] | 3.1 | 277 | 355 | 972 | – | – | – | – | –
CCn1c(=O)c2cnc(Nc3ccc4c(c3)CCNC4)nc2n1-c1cccc(C(C)(C)O)n1 [Example 1.12] | 4 | – | 1720 | 1060 | 70 | 120 | – | – | –
CCn1c(=O)c2cnc(Nc3ccc4c(c3)CN(C)CC4(C)C)nc2n1-c1cccc(C(C)(C)O)n1 [Example 1.16] | 4.5 | – | 1420 | 1550 | < 14 | 100 | – | – | –
CC(C)n1c(=O)c2cnc(Nc3ccc4c(c3)CCNC4)nc2n1-c1cccc(C(C)(C)F)n1 [Example 1.140] | 5 | – | 555 | – | – | – | 1520 | – | –
CC(C)(C)c1cccc(-n2c3nc(Nc4ccc5c(c4)CCNC5)ncc3c(=O)n2C2CC2)n1 [Example 1.143] | 3 | – | 470 | 2850 | – | – | 1850 | 270 | 3620

Further lines, with some results ahead:

IC50 (WEE1 kinase enzyme) [nM] | SMILES | IC50 (A427 cells [1]) [nM] | IC50 (A427 cells [2]) [nM] | IC50 (A549 cells) [nM] | IC50 (A427 cells [3]; [4]) [nM] | IC50 (A427 cells [3]; [5]) [nM] | IC50 (Panc 10.05 cells) [nM] | IC50 (As-Pc-1 cells) [nM] | IC50 (A172 cells) [nM]
9 | CC(C)(F)c1cccc(-n2c3nc(Nc4ccc5c(c4)CCNC5)ncc3c(=O)n2C2CC2)n1 [Example 1.146] | – | 965 | 6680 | – | – | 5700 | 920 | 6820
62 | CC(C)(C)c1cc(-n2c3nc(Nc4ccc5c(c4)CCNC5(C)C)ncc3c(=O)n2C2CC2)ccn1 [Example 2.182] | – | 720 | 7750 | – | – | 8600 | 1740 | 10600
4 | CC(C)n1c(=O)c2cnc(Nc3ccc4c(c3)CCNC4)nc2n1-c1ccnc(C(C)(C)C)n1 [Example 2.183] | – | 135 | 1800 | – | – | 805 | 95 | 1640
2 | CC(C)n1c(=O)c2cnc(Nc3ccc4c(c3)CNCC4)nc2n1-c1ccnc(C(C)(C)C)n1 [Example 2.184] | – | 90 | 655 | – | – | 545 | 85 | 985
53 | CC(C)n1c(=O)c2cnc(Nc3ccc4c(c3)CCNC4)nc2n1-c1ccn(C2CC2)n1 [Example 2.188] | – | 815 | 910 | – | – | 3100 | 965 | 1520
